One may read the GI50 as the concentration giving 50% growth inhibition. One may read the IC50 as the midpoint of a concentration-inhibition curve.

SMILES strings stand for the structures. Read-outs that look alike come from different tables or passages of the source.

1 compound from patent US6716851B2, “Substituted 2-aryl-4-arylaminopyrimidines and analogs as activators or caspases and inducers of apoptosis and the use thereof” (Cytovia, Inc., priority 2000, dated 2004) can be followed below.

For test [1], the system named is Panc-1 (pancreatic cancer cell line). Description: Cell proliferation assay (GI50) in Panc-1 cells. The test is classed as cell-based. The settings on record: Homo sapiens, PANC-1, 48 h. The procedure:
[Worded in the source for another cell line; this cell line is reported under the same test.] (§1) T-47D cells were grown and harvested as in Example 221. An aliquot of 90 μl of cells (2.2×10^4 cells/ml) was added to a well of a 96-well microtiter plate containing 10 μl of a 10% DMSO in RPMI-1640 media solution containing 1 nM to 100 μM of 4-(3-methoxyanilino)-2-(2-pyridinyl)-6-(trifluoromethyl)pyrimidine (0.1 nM to 10 μM final). An aliquot of 90 μl of cells was added to a well of a 96-well microtiter plate containing 10 μl of a 10% DMSO in RPMI-1640 media solution without compound as the control sample for maximal cell proliferation (AMax). The samples were mixed by agitation and then incubated at 37° C. for 48 h in a 5% CO2-95% humidity incubator. After incubation, the samples were removed from the incubator and 20 μl of CellTiter 96 AQueous One Solution Cell Proliferation^TM reagent (Promega) was added. The samples were mixed by agitation and incubated at 37° C. for 2-4 h in a 5% CO2-95% humidity incubator. Using an absorbance plate reader (Model 1420 Wallac Instruments), an initial reading (T=0) was made approximately 1-2 min after addition of the solution, employing absorbance at 490 nm. This determines the possible background absorbance of the test compounds. No absorbance for 4-(3-methoxyanilino)-2-(2-pyridinyl)-6-(trifluoromethyl)pyrimidine was found at 490 nm. After the 2-4 h incubation, the samples were read for absorbance as above (ATest). […]

In another test the test system is T47D cells. The test is described as follows: Clonogenic survival of T47D cells. The settings on record: Homo sapiens, 48 h treatment, colonies after 7-10 days, read-out: IC50 inhibition of clonogenic survival (colony forming ability), T47D. The class given is cell-based. The procedure:
(§2) T47D and MX-1 cells were grown according to the conditions according conditions recommended by American Type Culture Collection. In a well of a 96 well plate, 30,000 cells were seeded and treated with tested compound at the indicated concentrations for 48 hr in a 5% CO2-95% humidity incubator at 37° C. Control wells were treated with the same amount of solvent (DMSO) as the compound samples. After the 48 h treatment, the supernatant was removed to a sterile culture tube and the wells washed with phosphate buffered saline, and the adherent cells trypsinized for 5 min. The trypsinzed cells were added to the culture supernatant, cells were collected (1,200 rpm, 10 min), washed with phosphate buffered saline, and resuspended in fresh media. The cells were counted for trypan blue negative cells, and the cells diluted with fresh media to 1,000 cells/ml. To a well of a 24-well plate, 0.1 ml of the cell suspension was added along with 1 ml of fresh media (cell suspensions were passed through a 22G needle several times just before plating to form single cell suspensions). Plates are incubated in a 5% CO2-95% humidity incubator at 37° C. for 7-10 days. Colonies are counted when the sizes reached greater than 50 cells per colony. […] Colonies are rinsed with water and the colonies counted and the fraction surviving expressed as the percentage of the number of control colonies.

For another test, the system named is MX-1 cells. The test is described as follows: Clonogenic survival of MX-1 cells. The test is classed as cell-based. The settings on record: Homo sapiens, MX1; MX-1, 48 h treatment, colonies after 7-10 days; read-out: IC50 inhibition of clonogenic survival (colony forming ability), MX-1. The procedure: as §2
Test [2] deals with T-47D cells. The test is described as follows: Cell cycle arrest and apoptosis by propidium iodide flow cytometry in T-47D cells. The test is classed as cell-based, Human. The settings on record: 48 h. The procedure:
T-47D, a breast cancer cell line, was maintained and harvested as described in Example 221. 5×10^5 Cells were treated with 0.2 μM of 4-(3-methoxyanilino)-2-(2-pyridinyl)-6-(trifluoromethyl)pyrimidine for 48 h at 37° C. As a control, cells were also incubated with equivalent amount of solvent (DMSO). Cells were harvested at 1,200 rpm and then transferred to 12×75 mm polystyrene tubes. Cells were then resuspended in 500 μl of 1% Na Citrate, 0.1% Triton X-100, and 50 μg/ml of propidium iodide and incubated at room temperature for 30 min followed by flow cytometer analysis. All flow cytometry analyses were performed on FACScalibur (Becton Dickinson) using Cell Quest analysis software. The x-axis plotted the amount of fluorescence and the y-axis is plotted the number of cells with the indicated fluorescence. The T-47D control cell population profile is seen in FIG. 1A and the increase in G2/M DNA content cells that is seen when treated with 4-(3-methoxyanilino)-2-(2-pyridinyl)-6-(trifluoromethyl)pyrimidine at 0.2 μM is seen in FIG. 1B. An increase in the sub-diploid DNA content of cells (FIG. 1) is also seen to increase from 2% to 25% with compound treatment. The sub-diploid amount of DNA is indicative of apoptotic cells which have undergone DNA degradation or fragmentation.

Test [3] concerns T-47D cells. The test is described as follows: Cell proliferation assay (GI50) in T-47D cells. The class given is cell-based. The settings on record: Homo sapiens, T47D, 48 h. The procedure: as §1

With `COc1cccc(Nc2cc(C(F)(F)F)nc(-c3ccccn3)n2)c1` [Compound A, 4-(3-methoxyanilino)-2-(2-pyridinyl)-6-(trifluoromethyl)pyrimidine], the GI50 was over 10000 nM in test [1]; 30 nM with T-47D cells [3] (T-47D, Table II, read-out: GI50); 30 nM with T-47D cells [3] (Table III, read-out: GI50(nM) T47D). Besides, the results for the IC50 in the test with T47D cells and in the test on MX-1 cells were about 100 nM and about 300 nM, respectively. Moreover, in the test on T-47D cells [2] (0.2 μM, control 2%), the “sub-diploid DNA content of cells” value is on record as 25%. The G1 population entry in the test on T-47D cells [2] (200 nM, versus control cells) is “reduction”. The “G2/M population (G2/M DNA content cells)” value with T-47D cells [2] (200 nM, versus control cells) is “increase”.
